We go through 4 molecules from paper PMC10533516, “The Dictyostelium discoideum FimA protein, unlike yeast and plant fimbrins, is regulated by calcium similar to mammalian plastins” (Scientific Reports, 2023).

The Kd is the free concentration of one partner at which half of the binding sites on the other are occupied at equilibrium, for simple one-to-one binding.

In test [1] the target is T1, FimA-EF (Dictyostelium discoideum, UniProt P54680).
T1 construct: EF-hand headpiece domain with switch helix H5, residues 1-93; pET15b, N-terminal 6His-tag with TEV site, tag cleaved; E. coli BL21(DE3)
T1 sequence (P54680 1-93): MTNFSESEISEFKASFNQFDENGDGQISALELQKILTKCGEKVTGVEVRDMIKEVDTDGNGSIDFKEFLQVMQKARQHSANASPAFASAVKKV
Nature of the test: 1H, […]-HSQC NMR titration (chemical shift changes). Format: binding. The note with it: 25 °C, pH 7.0; Ca2+-bound; site of switch helix H5.

The target of test [2] is T2, FimA-EF-N81ter (Dictyostelium discoideum, UniProt P54680).
T2 construct: EF-hand headpiece domain truncated before switch helix H5 (N81ter), residues 1-80; N-terminal 6His-tag with TEV site, tag cleaved; E. coli BL21(DE3)
T2 sequence (P54680 1-80): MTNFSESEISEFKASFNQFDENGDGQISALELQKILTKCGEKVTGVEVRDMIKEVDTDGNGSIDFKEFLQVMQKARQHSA
Nature of the test: 1H, […]-HSQC NMR titration. Format: binding.

The target in test [3] is L-plastin H5 peptide H5 (Homo sapiens) (UniProt P13796). As to conditions: cited from earlier work.
Test [4] has as its target T3, FimA-EF-N81ter (EF-hand domain of the Dictyostelium discoideum FimA headpiece, residues 1-80, lacking the H5 … (Dictyostelium discoideum, UniProt P54680 1-80)).
T3 construct: FimA (fimbrin) of Dictyostelium discoideum, UniProtKB P54680, headpiece truncated by a stop codon at N81: residues 1-80, omits the entire H5 region; Made by site-directed mutagenesis of the synthetic FimA 1-93 gene in pET15b (NdeI/XhoI) with an N-terminal 6His-tag and a TEV site; The methods say the last 12 amino acids are deleted, but 1-80 of 1-93 removes 13; also called …
T3 sequence (looked up): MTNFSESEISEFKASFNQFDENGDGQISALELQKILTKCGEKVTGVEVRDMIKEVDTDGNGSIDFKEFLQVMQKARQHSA
Put plainly: NMR titration; 15N-labelled FimA-EF-N81ter titrated with the H5 peptide, 1H,15N-HSQC, chemical shift changes fitted, fast exchange; 25 °C, 100 mM KCl, 20 mM Bis-Tris pH 7.0, 10 mM DTT. As to conditions: both partners purified.

For `CN1CCN(CCCN2c3ccccc3Sc3ccc(C(F)(F)F)cc32)CC1` [TFP], the “1H,15N-HSQC NMR titration (chemical shift changes)” value in test [1] was “Both TFP and W7 caused significant chemical shift changes in the HSQC spectrum of FimA-EF”. In test [2], this molecule yielded a Kd of 1.5 µM.

Take `NCCCCCCNS(=O)(=O)c1cccc2c(Cl)cccc12` [W7]: in test [1], the “1H,15N-HSQC NMR titration (chemical shift changes)” value is “Both TFP and W7 caused significant chemical shift changes in the HSQC spectrum of FimA-EF”. The molecule further returned a Kd in test [2] of 3.8 µM.

On to “L-plastin EF-hand domain (from UniProt P13796)”, for which the Kd in test [3] was 3.5 µM.

B1: H5 peptide (14-residue synthetic peptide encompassing the H5 / putative regulatory switch-helix region of FimA) (peptide)
peptide: Ac-SANASPAFASAVKK-NH2
notes: Stretch of FimA of Dictyostelium discoideum (UniProtKB P54680) encompassing the putative regulatory domain (H5); Limits worked out from the printed positions N81, P84 and F86; also called synthetic H5 peptide; source: synthetic peptide, obtained from Genscript (purity over 95%)
On to B1, for which the Kd in test [4] amounted to 300 µM.
